Results as given in the NIST ThermoML archive (doi:10.1021/acs.jced.5b00474).
Where “and” joins values, the source holds several entries; their conditions need not be identical. Equal values may be shown once. ± gives the expanded uncertainty stated by the source.

Key:
[1] = 101 kPa; for speed of sound: Frequency=3 MHz, Sing-around technique in a fixed-path interferometer; for mass density: Vibrating tube method
[2] = xn = mol fraction of the nth substance listed; details: 101 kPa, Liquid, x2 = 0; for speed of sound: Frequency=3 MHz, Sing-around technique in a fixed-path interferometer; for mass density: Vibrating tube method

O=C1CCCN1 [2-pyrrolidinone]
[1], Metastable liquid
Details	mass density [kg/m3]	speed of sound [m/s]
293.15 K	1111.44 ± 0.51	1649.3 ± 0.94
298.15 K	1107.35 ± 0.51	1632.9 ± 0.94
301.15 K	1104.88 ± 0.51	–
303.15 K	1103.26 ± 0.51	1616.7 ± 0.93
308.15 K	1099.17 ± 0.51	1600.5 ± 0.93
313.15 K	1095.08 ± 0.51	1584.5 ± 0.92
318.16 K	1091 ± 0.51	1568.6 ± 0.92
323.16 K	1086.92 ± 0.51	1552.8 ± 0.91

ClC(Cl)Cl [trichloromethane] + O=C1CCCN1
[2]
Details	mass density [kg/m3]	speed of sound [m/s]
293.15 K	1487.52 ± 0.57	1001.5 ± 0.79
295.15 K	1483.74 ± 0.57	–
297.15 K	1479.93 ± 0.57	–
298.15 K	1478.02 ± 0.57	984.65 ± 0.78
303.15 K	1468.47 ± 0.57	967.76 ± 0.78
308.16 K	1458.85 ± 0.57	950.87 ± 0.78

CN1CCCC1=O [N-methylpyrrolidone]
[1], Liquid
Details	mass density	speed of sound
293.15 K	1032.25 ± 0.51 kg/m3 and 1032.51 ± 0.51 kg/m3	1564.7 ± 0.94 m/s
298.14 K	1028.07 ± 0.51 kg/m3	1545.5 ± 0.94 m/s
298.15 K	1027.79 ± 0.51 kg/m3	1544.6 ± 0.94 m/s
303.14 K	1023.61 ± 0.51 kg/m3	1526.1 ± 0.93 m/s
303.15 K	1023.33 ± 0.51 kg/m3	1525.3 ± 0.93 m/s
308.15 K	1019.15 ± 0.51 kg/m3 and 1018.87 ± 0.51 kg/m3	1506 ± 0.93 m/s and 1506.9 ± 0.93 m/s
313.15 K	1014.41 ± 0.51 kg/m3	1486.8 ± 0.92 m/s
318.15 K	1009.95 ± 0.51 kg/m3	1467.8 ± 0.92 m/s
323.16 K	1005.48 ± 0.51 kg/m3	1448.9 ± 0.91 m/s

CC#N [acetonitrile] + CN1CCCC1=O
[2]
Details	mass density [kg/m3]	speed of sound [m/s]
293.15 K	781.989 ± 0.52	–
298.15 K	776.616 ± 0.52	1278.6 ± 0.88
303.15 K	771.178 ± 0.52	1258.4 ± 0.88
308.15 K	765.719 ± 0.52	1238.3 ± 0.87
313.15 K	760.223 ± 0.53	1218.2 ± 0.87
318.16 K	754.702 ± 0.53	1198.1 ± 0.86
323.16 K	749.144 ± 0.53	1178 ± 0.86
